Results: patent US10457707B2, “Substituted urea depsipeptide analogs as activators of the CLPP endopeptidase” (priority 2015, dated 2019)
≈ marks a conversion by molar mass, not a printed value. Like-named read-outs stand apart in the source and are kept apart here. *1 amine or outer side, *2 acyl side, *3 side chain or, on linkers, in order; H or OH if unused. Where a SMILES comes first, the peptide text is derived from it. Bridges are numbered along the chain shown (N, C = ends). [ ]: non-standard residue; d: D form. The star is where a group is joined. ξ: configuration not given here. Phe(3,5-F2) = N[C@@H](Cc1cc(F)cc(F)c1)C(=O)O; NH(4-OCF3-phenyl) = FC(F)(F)Oc1ccc(N*)cc1; Pro(4R-Me) = C[C@H]1CN[C@H](C(=O)O)C1; ξPro(4R-OH) = O=C(O)C1C[C@@H](O)CN1; ξPro(4S-Me) = C[C@@H]1CNC(C(=O)O)C1; ξPro(4R-Me) = C[C@H]1CNC(C(=O)O)C1; NH(4-Et-phenyl) = CCc1ccc(N*)cc1; aThr = C[C@H](O)[C@H](N)C(=O)O; X12 = c1nc2ccc(N*)cc2[nH]1; Pip = O=C(O)[C@@H]1CCCCN1; NMeA = CN[C@@H](C)C(=O)O; ξPip = O=C(O)C1CCCCN1; CO = O=C([*:1])[*:2]; ξP = O=C(O)C1CCCN1

What was measured:
Format in all cases: cell-based
[1] = test system: Staphylococcus aureus, USA 300 wherein ClpP is inactivated; assay: Minimal inhibitory concentration assay
Method: (§1) It is understood, that in various aspects, the MIC is determined by a microbroth dilution method. In a further aspect, the MIC is determined by a microbroth dilution method using Staphylococcus aureus, ATCC 29213. In a still further aspect, the MIC is determined by a microbroth dilution method using Staphylococcus aureus, NRS70. In a yet further aspect, the MIC is determined by a microbroth dilution method using Streptococcus pyogenes, ATCC 700294. In an even further aspect, the MIC is determined by a microbroth dilution method using Streptococcus pneumoniae, DAW27. In a still further aspect, the MIC is determined by a microbroth dilution method using Bacillus subtilis, ATCC 23857. In a yet further aspect, the MIC is determined by a microbroth dilution method using Enterococcus faecalis, ATCC 33186. In an even further aspect, the MIC is determined using Staphylococcus aureus, USA 300. In a still further aspect, the MIC is determined using Streptococcus pneumoniae, R6. In a further aspect, the MIC is determined using Staphylococcus aureus, USA 300 and compared to the MIC determined using Staphylococcus aureus, USA 300 wherein ClpP is inactivated, thus allowing confirmation that killing is via a ClpP-dependent pathway.
(§2) Minimal inhibitory concentrations (“MICs”) were determined using the microbroth dilution method according to Clinical Laboratory Standards Institute (CLSI; National, C.F. C. L. S., Methods for Dilution Antimicrobial Susceptibility Tests for Bacteria Grow aerobically-Seventh Edition: Approved Standard M7-A7, CLSI, Wayne, Pa., USA, 2008) and were read by visual inspection. Two fold serial dilutions of test compound in 100 μL of the appropriate broth media were first prepared in 96-well round bottom microtiter plates (Nalgene Nunc International, Rochester, N.Y., USA). An equivalent volume (100 μL) of bacterial broth inocula containing approximately 10^5 bacterial cfu/mL was added to each well to give final concentrations of test compound starting at 200 μM. The plates were then incubated aerobically at 37° C. All strains were incubated overnight. After incubations, in all cases the MIC was recorded as the lowest concentration of drug that prevented bacterial growth. The bacterial strains for which MIC was determined as described in Table 4.

[2] = test system: Staphylococcus aureus, USA 300; assay: Minimal inhibitory concentration assay; conditions: USA300, read-out: Minimal Inhibitory Concentrations S. aureus USA 300
Method: as §1, §2

[3] = test system: Streptococcus pyogenes, ATCC 700294; assay: Minimal inhibitory concentration assay (microbroth dilution); conditions: Streptococcus pyogenes, ATCC700294; read-out: Minimal Inhibitory Concentrations S. pyogenes ATCC 700294
Method: as §1
Minimal inhibitory concentrations (“MICs”) were determined using the microbroth dilution method according to Clinical Laboratory Standards Institute (CLSI; National, C.F. C. L. S., Methods for Dilution Antimicrobial Susceptibility Tests for Bacteria Grow aerobically-Seventh Edition: Approved Standard M7-A7, CLSI, Wayne, Pa., USA, 2008) and were read by visual inspection. Two fold serial dilutions of test compound in 100 μL of the appropriate broth media were first prepared in 96-well round bottom microtiter plates (Nalgene Nunc International, Rochester, N.Y., USA). […] The plates were then incubated aerobically at 37° C. All strains were incubated overnight. After incubations, in all cases the MIC was recorded as the lowest concentration of drug that prevented bacterial growth. The bacterial strains for which MIC was determined as described in Table 4.

[4] = test system: Staphylococcus aureus, ATCC 29213; assay: as above; conditions: ATCC29213, read-out: Minimal Inhibitory Concentrations S. aureus ATCC 29213
Method: as §1, §2

[5] = test system: Staphylococcus aureus, NRS70; assay: as above
Method: as §1, §2

[6] = test system: Bacillus subtilis, ATCC 23857; assay: as above; conditions: Bacillus subtilis, ATCC23857; read-out: Minimal Inhibitory Concentrations B. subtilis ATCC 23857
Method: as §1, §2

[7] = test system: Enterococcus faecalis, ATCC 33186; assay: as above; conditions: Enterococcus faecalis, ATCC33186, read-out: Minimal Inhibitory Concentrations E. faecalis ATCC 33186
Method: as §1, §2

[8] = Staphylococcus aureus, NRS70; read-out: Minimal Inhibitory Concentrations S. aureus NRS70

C[C@H]1CC2C(=O)OC[C@H](NC(=O)[C@H](Cc3cc(F)cc(F)c3)NC(=O)Nc3ccc4c(c3)OCO4)C(=O)N3CCCC3C(=O)N3CCCCC3C(=O)N[C@@H](C)C(=O)N2C1 (stereo partly drawn) [Compound 46, (S)-2-(3-(benzo[d][1,3]dioxol-5-yl)ureido)-3-(3,5-difluorophenyl)-N-((2S,6S,8aS,14aS,20S,23aS)-2,6-dimethyl-5,8,14,19,23-pentaoxooctadecahydro-1H,5H,14H,19H-pyrido[2,1-i]dipyrrolo[2,1-c:2′,1′-l][1]oxa[4,7,10,13]tetraazacyclohexadecin-20-yl)propanamide]
Minimal Inhibitory Concentrations S. aureus USA 300 ΔClpP [1]: 200 µM | MIC [2]: 3.1 µM (≈ 2.55 µg/mL) | MIC [3]: 0.8 µM (≈ 0.659 µg/mL) | MIC [4]: 3.1 µM (≈ 2.55 µg/mL) | MIC [5, 8]: 1.6 µM (≈ 1.32 µg/mL) | MIC [6]: 0.4 µM (≈ 0.33 µg/mL)

C[C@H]1CC2C(=O)O[C@@H](C)[C@H](NC(=O)[C@H](Cc3cc(F)cc(F)c3)NC(=O)Nc3ccc(OC(F)(F)F)cc3)C(=O)N3C[C@H](O)CC3C(=O)N(C)[C@@H](C)C(=O)N[C@@H](C)C(=O)N2C1 (stereo partly drawn) [Compound 32, (S)-3-(3,5-difluorophenyl)-N-((2S,6S,9S,11aS,13R,17S,18S,20aS)-13-hydroxy-2,6,9,10,18-pentamethyl-5,8,11,16,20-pentaoxohexadecahydro-1H,5H,16H-dipyrrolo[2,1-c:2′,1′-l][1]oxa[4,7,10,13]tetraazacyclohexadecin-17-yl)-2-(3-(4-(trifluoromethoxy)phenyl)ureido)propanamide] ({NH(4-OCF3-phenyl)-CO}-[Phe(3,5-F2)][aThr][ξPro(4R-OH)][NMeA]A[ξPro(4S-Me)]; ester 2-C)
Minimal Inhibitory Concentrations S. aureus USA 300 ΔClpP [1]: 100 µM | MIC [2]: 0.39 µM (≈ 0.338 µg/mL) | MIC [3]: 0.2 µM (≈ 0.174 µg/mL) | MIC [4]: 0.1 µM (≈ 0.0868 µg/mL) | MIC [5, 8]: 0.1 µM (≈ 0.0868 µg/mL) | MIC [6]: 0.39 µM (≈ 0.338 µg/mL)

CCc1ccc(NC(=O)N[C@@H](Cc2cc(F)cc(F)c2)C(=O)N[C@@H]2C(=O)N3CCCC3C(=O)N(C)[C@@H](C)C(=O)N[C@@H](C)C(=O)N3C[C@@H](C)CC3C(=O)O[C@H]2C)cc1 (stereo partly drawn) [Compound 30, (S)-3-(3,5-difluorophenyl)-2-(3-(4-ethylphenyl)ureido)-N-((2S,6S,9S,11aS,17S,18S,20aS)-2,6,9,10,18-pentamethyl-5,8,11,16,20-pentaoxohexadecahydro-1H,5H,16H-dipyrrolo[2,1-c:2′,1′-L][1]oxa[4,7,10,13]tetraazacyclohexadecin-17-yl)propanamide] ({NH(4-Et-phenyl)-CO}-[Phe(3,5-F2)][aThr][ξP][NMeA]A[ξPro(4S-Me)]; ester 2-C)
Minimal Inhibitory Concentrations S. aureus USA 300 ΔClpP [1]: 50 µM | MIC [2]: 0.1 µM (≈ 0.0796 µg/mL) | MIC [3]: 0.03 µM (≈ 0.0239 µg/mL) | MIC [4]: 0.1 µM (≈ 0.0796 µg/mL) | MIC [5, 8]: 0.2 µM (≈ 0.159 µg/mL) | MIC [6]: 0.001 µM (≈ 0.000796 µg/mL)

C[C@@H]1C[C@H]2C(=O)O[C@@H](C)[C@H](NC(=O)[C@H](Cc3cc(F)cc(F)c3)NC(=O)Nc3ccc4nc[nH]c4c3)C(=O)N3CCC[C@H]3C(=O)N3CCCC[C@H]3C(=O)N[C@@H](C)C(=O)N2C1 [Compound 303, (S)-2-(3-(1H-benzo[d]imidazol-6-yl)ureido)-3-(3,5-difluorophenyl)-N-((2R,6S,8aS,14aS,20S,21S,23aS)-2,6,21-trimethyl-5,8,14,19,23-pentaoxooctadecahydro-1H,5H,14H,19H-pyrido[2,1-i]dipyrrolo[2,1-c:2′,1′-l][1]oxa[4,7,10,13]tetraazacyclo-hexadecin-20-yl)propanamide] ({X12-CO}-[Phe(3,5-F2)][aThr]P[Pip]A[Pro(4R-Me)]; ester 2-C)
Minimal Inhibitory Concentrations S. aureus USA 300 ΔClpP [1]: >20 µM | MIC [2]: 15.1 µM (≈ 12.6 µg/mL) | MIC [4]: 20 µM (≈ 16.7 µg/mL) | MIC ([5]; Staphylococcus aureus, NRS70, read-out: Minimal Inhibitory Concentrations S. aureus NRS70): 10.1 µM (≈ 8.42 µg/mL) | MIC [7]: 2.5 µM (≈ 2.08 µg/mL)

CCc1ccc(NC(=O)N[C@@H](Cc2cc(F)cc(F)c2)C(=O)N[C@@H]2C(=O)N3CCCC3C(=O)N(C)[C@@H](C)C(=O)N[C@@H](C)C(=O)N3CCCC3C(=O)O[C@H]2C)cc1 (stereo partly drawn) [Compound 29, (2S)-3-(3,5-difluorophenyl)-2-(3-(4-ethylphenyl)ureido)-N-((6S,9S,11aS,17S,18S)-6,9,10,18-tetramethyl-5,8,11,16,20-pentaoxohexadecahydro-1H,5H,16H-dipyrrolo[2,1-c:2′,1′-l][1]oxa[4,7,10,13]tetraazacyclohexadecin-17-yl)propanamide] ({NH(4-Et-phenyl)-CO}-[Phe(3,5-F2)][aThr][ξP][NMeA]A[ξP]; ester 2-C)
Minimal Inhibitory Concentrations S. aureus USA 300 ΔClpP [1]: 100 µM | MIC [2]: 0.2 µM (≈ 0.156 µg/mL) | MIC [3]: 0.13 µM (≈ 0.102 µg/mL) | MIC [4]: 0.2 µM (≈ 0.156 µg/mL) | MIC [5, 8]: 0.2 µM (≈ 0.156 µg/mL) | MIC [6]: 0.01 µM (≈ 0.00782 µg/mL)

C[C@@H]1NC(=O)[C@H](C)N(C)C(=O)C2CCCN2C(=O)[C@@H](NC(=O)[C@H](Cc2cc(F)cc(F)c2)NC(=O)Nc2ccc(OC(F)(F)F)cc2)[C@H](C)OC(=O)C2CCCN2C1=O (stereo partly drawn) [Compound 27, (2S)-3-(3,5-difluorophenyl)-N-((6S,9S,11aS,17S,18S)-6,9,10,18-tetramethyl-5,8,11,16,20-pentaoxohexadecahydro-1H,5H,16H-dipyrrolo[2,1-c:2′,1′-l][1]oxa[4,7,10,13]tetraazacyclohexadecin-17-yl)-2-(3-(4-(trifluoromethoxy)phenyl)ureido)propanamide] ({NH(4-OCF3-phenyl)-CO}-[Phe(3,5-F2)][aThr][ξP][NMeA]A[ξP]; ester 2-C)
Minimal Inhibitory Concentrations S. aureus USA 300 ΔClpP [1]: 100 µM | MIC [2]: 0.2 µM (≈ 0.168 µg/mL) | MIC [3]: 0.23 µM (≈ 0.193 µg/mL) | MIC [4]: 0.2 µM (≈ 0.168 µg/mL) | MIC [5, 8]: 0.2 µM (≈ 0.168 µg/mL) | MIC [6]: 0.02 µM (≈ 0.0168 µg/mL)

C[C@@H]1CC2C(=O)O[C@@H](C)[C@H](NC(=O)[C@H](Cc3cc(F)cc(F)c3)NC(=O)Nc3ccc(OC(F)(F)F)cc3)C(=O)N3CCCC3C(=O)N3CCCCC3C(=O)N[C@@H](C)C(=O)N2C1 (stereo partly drawn) [Compound 40, (S)-3-(3,5-difluorophenyl)-2-(3-(4-(trifluoromethoxy)phenyl)ureido)-N-((2R,6S,8aS,14aS,20S,21S,23aS)-2,6,21-trimethyl-5,8,14,19,23-pentaoxooctadecahydro-1H,5H,14H,19H-pyrido[2,1-i]dipyrrolo[2,1-c:2′,1′-L][1]oxa[4,7,10,13]tetraazacyclohexadecin-20-yl)propanamide] ({NH(4-OCF3-phenyl)-CO}-[Phe(3,5-F2)][aThr][ξP][ξPip]A[ξPro(4R-Me)]; ester 2-C)
Minimal Inhibitory Concentrations S. aureus USA 300 ΔClpP [1]: 25 µM | MIC [2]: 0.05 µM (≈ 0.0439 µg/mL) | MIC [3]: 0.4 µM (≈ 0.351 µg/mL) | MIC [4]: 0.05 µM (≈ 0.0439 µg/mL) | MIC [5, 8]: 0.02 µM (≈ 0.0176 µg/mL) | MIC [6]: 0.02 µM (≈ 0.0176 µg/mL)

C[C@H]1CC2C(=O)OC[C@H](NC(=O)[C@H](Cc3ccccc3)NC(=O)Nc3ccc(OC(F)(F)F)cc3)C(=O)N3CCCC3C(=O)N3CCCCC3C(=O)N[C@@H](C)C(=O)N2C1 (stereo partly drawn) [Compound 44, (S)—N-((2S,6S,8aS,14aS,20S,23aS)-2,6-dimethyl-5,8,14,19,23-pentaoxooctadecahydro-1H,5H,14H,19H-pyrido[2,1-i]dipyrrolo[2,1-c:2′,1′-l][1]oxa[4,7,10,13]tetraazacyclohexadecin-20-yl)-3-phenyl-2-(3-(4-(trifluoromethoxy)phenyl)ureido)propanamide]
Minimal Inhibitory Concentrations S. aureus USA 300 ΔClpP [1]: 50 µM | MIC [2]: 0.8 µM (≈ 0.662 µg/mL) | MIC [3]: 0.2 µM (≈ 0.166 µg/mL) | MIC [4]: 0.4 µM (≈ 0.331 µg/mL) | MIC [5, 8]: 0.4 µM (≈ 0.331 µg/mL) | MIC [6]: 0.1 µM (≈ 0.0828 µg/mL)
